Results: PMC6272390, “Xanthones from the Leaves of Garcinia cowa Induce Cell Cycle Arrest, Apoptosis, and Autophagy in Cancer Cells” (Molecules, 2015)

Assays:
HeLa = assay: CCK-8 cytotoxicity assay, HeLa; format: cell-based; conditions: Homo sapiens, CCK-8, 72 h treatment
Description: (§1) The CCK-8 assay was used to determine cell viability. Test samples were dissolved in dimethyl sulfoxide (DMSO) to make stock solutions and further diluted in culture medium for assays. Human cancer cell lines (HeLa, PANC-1, and A549) were cultured in RPMI 1640, DMEM or DMEM/F12 (1:1) medium containing 10% fetal bovine serum. Cells were maintained at 37 °C in a humidified environment under 5% CO2. Cell proliferation assays were performed as previously described. Briefly, each cell line was seeded in a 96-well tissue culture plate at a predetermined density in 180 µL of complete medium, attached overnight and treated with test compound for 72 h. Then the medium was discarded and replaced with 10% CCK-8 in complete medium and the plates incubated for another 2 h. OD450 was measured with a SpectraMAX 190 spectrophotometer (MDS, Sunnyvale, CA, USA). Background absorbance was subtracted for all wells. Inhibition rate (IR) was determined. IR (%) = (ODDMSO − ODcompound)/ODDMSO × 100%.

A549 = assay: CCK-8 cytotoxicity assay, A549; format: cell-based; conditions: Homo sapiens, CCK-8, 72 h treatment
Description: as §1

PANC-1 = assay: CCK-8 cytotoxicity assay, PANC-1; format: cell-based; conditions: Homo sapiens, CCK-8, 72 h treatment
Description: as §1

[1] = CCK-8 cytotoxicity assay, immortalized HL7702 normal liver cells; format: cell-based; conditions: immortalized HL-7702 normal liver cells; CCK-8, 72 h treatment; normal human liver cells, selectivity
HeLa, PANC-1, and A549 = assay: Cytotoxicity against cell line panel (summary statements); format: cell-based; conditions: Homo sapiens; summary of Table 2; cell line not specified; read-out: Inhibition on cell viability, IC50
Description: as §1

HeLa cells = assay: Flow cytometry analysis of apoptosis and cell cycle arrest (PI staining); format: cell-based, human; conditions: 24 h, FACS
Description: Figure 3 Effects of 1, 5, 16, and 17 on cell cycle and apoptosis. HeLa cells were treated with indicated chemicals. After 24 h of treatment, the cells were harvested, fixed in 70% EtOH, and stained with PI. The cell cycle and apoptosis rate were detected by FACS. Etoposide is used as positive control; (A) Cell cycle attribution of HeLa cells under different concentration treatment; (B) Apoptotic rates were acquired from Sub-G1 fraction from A.
Hypodiploid DNA and cell cycle arrest were evaluated as described previously. Briefly, after treatment of HeLa cancer cells with vehicle (0.1% DMSO) or test compound at the indicated concentrations and times, the cells were harvested by trypsinization and fixed with 70% (v/v) alcohol at 4 °C for 30 min. After washing with PBS, RNase (10 µg/mL) was added and incubated for 15 min at 37 °C to eliminate RNA interference. The cells were then treated with propidium iodide (PI) for another 30 min. The cells were washed, and the DNA content determined using FACSCalibur.

[2] = system: HeLa cells (PARP, caspase-3, LC3B, p62); assay: Western blot of apoptosis and autophagy related proteins; format: cell-based, human; conditions: 24 h
Description: Figure 4 Effects of 1, 5, 16, and 17 on apoptosis and autophagy related proteins. Western blots of p62, LC3B, PARP, Caspase 3, and GAPDH of HeLa cells after 24 h treatment with 1, 5, 16, and 17. Etoposide was used as positive control.
Cell lysate was prepared in RIPA buffer and quantified by the bicinchoninic acid (BCA) method (Pierce, Rockford, IL, USA). Thirty micrograms of protein per sample was loaded onto a 4%~12% NuPAGE® Novex SDS gel. Protein was transferred using an iBlot® dry blotting device onto nitrocellulose membranes. After blocking nonspecific binding with TBS/Tween20 (0.1%) (TBS/T) containing 5% non-fat milk for 1 h at room temperature, the membrane was incubated in LC3B (Sigma, L7543), SQSTM1/p62 (MBL, PM045), PARP (CST #9542P, Cell Signaling Technology, Shanghai, China), or caspase-3 (CST #9662P, Cell Signaling Technology) (1:1000 in TBS/T containing 3% bovine serum albumin (BSA) in all cases) with gentle shaking at 4 °C overnight. Membranes were washed three times with TBS/T to remove unbound antibody and then incubated with secondary antibody (HRP-conjugated goat anti-mouse IgG or goat anti-rabbit IgG (1:5000) for 1 h at room temperature. Protein bands were visualized with an enhanced chemiluminescence kit (ECL, Pierce).

[3] = system: HeLa cells stably expressing GFP-LC3; assay: GFP-LC3 puncta imaging; format: cell-based, human; conditions: HeLa-GFP-LC3 cells, 10, 20 µM, 24 h, confocal images
Description: Figure 5 Xanthone V1 (17) induces GFP-LC3 puncta formation in HeLa cells. HeLa cells stably expressing GFP-LC3 were seeded in a 96-well dish and treated with 10, 20 µM 17 for 24 h. (A) The number of GFP-LC3 puncta in each samples were calculated by Columbus software. The number was averaged of cells from three wells; (B) The images of GFP-LC3 puncta after 10, 20 µM treatment Xanthone V1 were acquired by an Opera (GFP ex and em) with a 40×-H2O objective. Left Panel: the original GFP-LC3 puncta; Right panel: the spots were auto-analyzed by Columbus software.
HeLa cells stably expressing GFP-LC3 were generated as previously described. Briefly, HeLa cells were transfected with pEGFP-LC3 plasmid using Lipofectamine 2000 (11668-019, Invitrogen, Carlsbad, CA, USA). One day after transfection, the cells were treated with 800 μg/mL G418 for 7 days. Surviving cells (termed HeLa-GFP-LC3 below) were continually cultured with 800 μg/mL G418. HeLa-GFP-LC3 cells were seeded in a 96-well plate overnight (clear bottom, black, Perkin-Elmer, Waltham, MA, USA). The cells were then treated with test compounds in triplicate. After 48 h, the cells were fixed with 4% paraformaldehyde and washed three times with PBS. […] The data were analyzed using Columbus 2.3 software (Perkin-Elmer). To quantify GFP-LC3 spots, the following procedures were performed: 1. […]

Row | SMILES | IC50 (HeLa) [µM] | IC50 (A549) [µM] | IC50 (PANC-1) [µM] | IC50 at 72 h [1] [µM] | IC50 (HeLa, PANC-1, and A549) [µM] | Cell cycle arrest phase (HeLa cells) | PARP cleavage [2] | Induction of apoptosis (Sub-G1 fraction) (HeLa cells) | Conversion of LC3-I to LC3-II [2] | p62 level [2] | GFP-LC3 puncta formation [3]
1 | CC(C)=CCc1c(O)c(O)c2oc3c(CC=C(C)C)c(O)ccc3c(=O)c2c1O [Compound 1, 1,3,4,6-tetrahydroxy-2,5-di(3-methylbut-2-enyl)-xanthone] | 8.09 ± 0.78 | 12.6 ± 4.3 | 14.8 ± 8.68 | 11 ± 4.36 | < 10 | at the G2/M phase | – | – | – | – | –
2 | CC(C)=CCc1c2c(c3oc4c(O)c(O)ccc4c(=O)c3c1O)C=CC(C)(C)O2 [Compound 5, 1,5,6-trihydroxy-2-prenyl-6′,6′-dimethyl-2H-pyrano(2′,3′:3,4)xanthone] | 7.06 ± 0.71 | 8.19 ± 0.99 | 9.32 ± 4.58 | 10.5 ± 4.12 | < 10 | cell cycle arrest at the S phase in a dose-dependent fashion | activated PARP cleavage | – | – | – | –
3 | C=C(C)C(O)C[C@H](C[C@@]12C[C@@H](CC=C(C)C)C(C)(C)[C@@](CC=C(C)C)(C(=O)C(C(=O)c3ccc(O)c(O)c3)=C1O)C2=O)C(=C)C (stereo partly shown) [Compound 8, garcimultiflorone E] | 17.6 ± 1.45 | 7.57 ± 0.57 | 17.7 ± 1.56 | 7.34 ± 0.65 | < 10 | – | – | – | – | – | –
4 | C=C(C)C(CC=C(C)C)C[C@@]12C[C@@H](CC=C(C)C)C(C)(C)[C@@](CC=C(C)C)(C1=O)c1oc3cc(O)c(O)cc3c(=O)c1C2=O (stereo partly shown) [Compound 15, symphonone H] | 9.83 ± 0.61 | 6.27 ± 0.71 | 11.2 ± 4.89 | 3.96 ± 2.38 | < 10 | – | – | – | – | – | –
5 | CC1(C)C=Cc2c(cc3oc4c(O)c(O)ccc4c(=O)c3c2O)O1 [Compound 16, jacareubin] | 1.09 ± 0.67 | 6.9 ± 2.23 | 10.1 ± 7.91 | 5.5 ± 1.79 | < 10 | at the G2/M phase | activated PARP cleavage | induced apoptosis | – | – | –
6 | CC(C)=CCc1c2c(c(O)c3c(=O)c4ccc(O)c(O)c4oc13)C=CC(C)(C)O2 [Compound 17, xanthone V1] | 4.71 ± 0.52 | 11.8 ± 6.29 | 6.56 ± 2.55 | 9.5 ± 3.74 | < 10 | at the G1 phase | activated PARP cleavage | induced apoptosis | increased the conversion of LC3-I to LC3-II | p62 reduction | an increase in GFP-LC3 puncta was observed
7 | COc1cc([C@@H]2c3cc4c(cc3[C@@H](O[C@@H]3O[C@@H]5CO[C@@H](C)O[C@H]5[C@H](O)[C@H]3O)[C@H]3COC(=O)[C@H]23)OCO4)cc(OC)c1O [Etoposide, reference compound] | 2.91 ± 0.16 | 1.31 ± 0.09 | 22.8 ± 1.93 | 1.42 ± 0.13 | – | – | – | – | – | – | –
